The source made the active and inactive calls.
Experiments:
Mu-type opioid receptor = Mu-type opioid receptor (Homo sapiens, UniProt P35372); experiment: Counterscreen for agonists of heterodimerization of the mu 1 (OPRM1) and delta 1 (OPRD1) opioid receptors: Luminescence-based cell-based high throughput dose response assay to identify agonists of OPRM1 homodimerization.; type: functional;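 also: U2OS cells expressing OPRM1 and beta-arrestin as split beta-galactosidase partners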
[1] = target: T1, DNA repair protein RAD52 homolog (Homo sapiens, UniProt P43351); type: functional, biochemical
T1 sequence (P43351 whole entry): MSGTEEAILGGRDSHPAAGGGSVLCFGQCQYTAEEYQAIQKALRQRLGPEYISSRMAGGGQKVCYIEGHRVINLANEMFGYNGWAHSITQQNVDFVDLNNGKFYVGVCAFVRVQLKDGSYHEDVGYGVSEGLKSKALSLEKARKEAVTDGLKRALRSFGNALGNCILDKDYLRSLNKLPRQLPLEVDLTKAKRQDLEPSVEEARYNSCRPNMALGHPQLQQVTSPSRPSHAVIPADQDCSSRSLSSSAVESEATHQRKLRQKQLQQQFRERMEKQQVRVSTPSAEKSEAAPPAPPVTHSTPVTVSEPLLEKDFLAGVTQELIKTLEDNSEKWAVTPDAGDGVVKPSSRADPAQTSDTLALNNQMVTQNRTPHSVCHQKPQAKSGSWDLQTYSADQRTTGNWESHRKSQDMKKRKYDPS

[2] = target: T2, Short transient receptor potential channel 4 (Mus musculus, UniProt Q9QUQ5); experiment: calcium entry via TRPC4 opening agents – cell-based, HEK293 TRPC4/mu-opioid, Fluo-4 calcium, dose response (AID 434937); type: functional
T2 sequence (Q9QUQ5 whole entry): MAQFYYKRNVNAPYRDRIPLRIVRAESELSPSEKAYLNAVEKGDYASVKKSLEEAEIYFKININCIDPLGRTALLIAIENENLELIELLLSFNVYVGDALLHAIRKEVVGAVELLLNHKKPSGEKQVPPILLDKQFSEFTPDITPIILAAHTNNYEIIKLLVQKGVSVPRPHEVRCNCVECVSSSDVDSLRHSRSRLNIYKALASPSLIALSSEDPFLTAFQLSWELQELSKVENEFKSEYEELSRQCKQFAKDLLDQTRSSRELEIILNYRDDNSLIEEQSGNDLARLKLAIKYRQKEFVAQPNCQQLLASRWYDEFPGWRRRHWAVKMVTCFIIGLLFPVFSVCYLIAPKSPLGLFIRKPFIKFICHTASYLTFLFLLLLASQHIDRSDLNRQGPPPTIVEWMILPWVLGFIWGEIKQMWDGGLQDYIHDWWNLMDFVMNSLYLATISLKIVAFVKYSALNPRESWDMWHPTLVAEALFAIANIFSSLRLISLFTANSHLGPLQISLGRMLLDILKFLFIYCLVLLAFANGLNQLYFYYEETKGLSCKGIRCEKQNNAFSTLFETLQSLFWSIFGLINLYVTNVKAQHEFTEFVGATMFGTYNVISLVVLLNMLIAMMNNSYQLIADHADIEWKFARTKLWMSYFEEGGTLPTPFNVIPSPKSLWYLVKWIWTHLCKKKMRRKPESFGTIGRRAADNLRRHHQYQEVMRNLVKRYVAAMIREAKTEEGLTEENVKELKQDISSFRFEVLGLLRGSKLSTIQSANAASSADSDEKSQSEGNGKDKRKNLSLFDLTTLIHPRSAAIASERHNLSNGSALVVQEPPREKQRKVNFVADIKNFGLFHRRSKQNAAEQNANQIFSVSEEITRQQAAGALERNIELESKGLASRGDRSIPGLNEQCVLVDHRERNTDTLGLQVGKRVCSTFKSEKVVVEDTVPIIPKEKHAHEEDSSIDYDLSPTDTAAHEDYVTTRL

[3] = target: Delta-type opioid receptor (Homo sapiens, UniProt P41143); experiment: Counterscreen for agonists of heterodimerization of the mu 1 (OPRM1) and delta 1 (OPRD1) opioid receptors: Luminescence-based cell-based high throughput dose response assay to identify agonists of OPRD1 homodimerization. [Related pubchem assays (depositor defined):AID504326, AID504355, AID504692, AID504904, AID504905]; type: functional
Delta-type opioid receptor, sequence (P41143 whole entry): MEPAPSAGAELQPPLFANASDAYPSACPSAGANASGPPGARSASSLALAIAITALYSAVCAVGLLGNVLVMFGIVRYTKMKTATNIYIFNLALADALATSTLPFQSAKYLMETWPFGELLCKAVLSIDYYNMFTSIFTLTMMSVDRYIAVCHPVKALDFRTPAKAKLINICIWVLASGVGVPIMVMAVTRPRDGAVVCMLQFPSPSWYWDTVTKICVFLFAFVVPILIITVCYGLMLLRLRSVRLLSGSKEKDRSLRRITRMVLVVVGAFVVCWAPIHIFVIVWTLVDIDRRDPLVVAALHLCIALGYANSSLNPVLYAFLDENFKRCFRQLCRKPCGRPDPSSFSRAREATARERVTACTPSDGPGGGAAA

Galanin receptor type 2 = Galanin receptor type 2 (Homo sapiens, UniProt O43603); experiment: Dose Response cell-based high-throughput screening assay to identify agonists of galanin receptor 2 (GALR2). [Related pubchem assays: 864 ]; type: functional
Galanin receptor type 2, sequence (O43603 whole entry): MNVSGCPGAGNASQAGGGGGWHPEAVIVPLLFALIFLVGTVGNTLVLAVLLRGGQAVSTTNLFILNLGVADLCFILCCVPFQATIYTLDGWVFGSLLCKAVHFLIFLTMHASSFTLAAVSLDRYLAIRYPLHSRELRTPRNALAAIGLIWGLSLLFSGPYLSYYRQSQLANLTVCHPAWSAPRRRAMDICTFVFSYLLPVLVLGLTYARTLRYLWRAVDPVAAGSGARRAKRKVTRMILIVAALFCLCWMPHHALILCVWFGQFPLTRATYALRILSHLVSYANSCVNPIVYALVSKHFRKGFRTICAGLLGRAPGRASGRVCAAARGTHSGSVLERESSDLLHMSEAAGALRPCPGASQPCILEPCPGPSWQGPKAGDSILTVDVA

[4] = target: 5-hydroxytryptamine receptor 5A (Homo sapiens, UniProt P47898); experiment: Counterscreen for agonists of OPRM1-OPRD1 heterodimerization: luminescence-based cell-based high throughput dose response assay to identify agonists of 5-hydroxytryptamine (serotonin) 5A receptor (HTR5A). [Related pubchem assays (depositor defined):AID504326, AID504355, AID504692, AID504904, AID504905]; type: functional
5-hydroxytryptamine receptor 5A, sequence (P47898 whole entry): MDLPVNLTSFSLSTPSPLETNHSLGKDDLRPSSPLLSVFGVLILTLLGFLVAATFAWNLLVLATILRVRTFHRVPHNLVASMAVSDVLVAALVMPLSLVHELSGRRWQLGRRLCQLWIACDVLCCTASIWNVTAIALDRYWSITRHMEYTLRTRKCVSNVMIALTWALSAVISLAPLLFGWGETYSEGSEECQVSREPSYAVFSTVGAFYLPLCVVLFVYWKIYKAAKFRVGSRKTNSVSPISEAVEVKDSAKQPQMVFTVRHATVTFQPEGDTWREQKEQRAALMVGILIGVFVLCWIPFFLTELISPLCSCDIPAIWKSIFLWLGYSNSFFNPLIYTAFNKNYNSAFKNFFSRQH

Vero [5] = experiment: cells; type: functional; conditions: Chlorocebus sabaeus
Aminopeptidase N = target: T3, Aminopeptidase N (Plasmodium falciparum FcB1/Columbia, UniProt O96935); experiment: malaria alanyl aminopeptidase activity blockers – biochemical, fluorogenic H-Leu-NHMec substrate, 1536-well (AID 1445); parameters: species or system Plasmodium falciparum 3D7, 3D7
T3 sequence (O96935 whole entry): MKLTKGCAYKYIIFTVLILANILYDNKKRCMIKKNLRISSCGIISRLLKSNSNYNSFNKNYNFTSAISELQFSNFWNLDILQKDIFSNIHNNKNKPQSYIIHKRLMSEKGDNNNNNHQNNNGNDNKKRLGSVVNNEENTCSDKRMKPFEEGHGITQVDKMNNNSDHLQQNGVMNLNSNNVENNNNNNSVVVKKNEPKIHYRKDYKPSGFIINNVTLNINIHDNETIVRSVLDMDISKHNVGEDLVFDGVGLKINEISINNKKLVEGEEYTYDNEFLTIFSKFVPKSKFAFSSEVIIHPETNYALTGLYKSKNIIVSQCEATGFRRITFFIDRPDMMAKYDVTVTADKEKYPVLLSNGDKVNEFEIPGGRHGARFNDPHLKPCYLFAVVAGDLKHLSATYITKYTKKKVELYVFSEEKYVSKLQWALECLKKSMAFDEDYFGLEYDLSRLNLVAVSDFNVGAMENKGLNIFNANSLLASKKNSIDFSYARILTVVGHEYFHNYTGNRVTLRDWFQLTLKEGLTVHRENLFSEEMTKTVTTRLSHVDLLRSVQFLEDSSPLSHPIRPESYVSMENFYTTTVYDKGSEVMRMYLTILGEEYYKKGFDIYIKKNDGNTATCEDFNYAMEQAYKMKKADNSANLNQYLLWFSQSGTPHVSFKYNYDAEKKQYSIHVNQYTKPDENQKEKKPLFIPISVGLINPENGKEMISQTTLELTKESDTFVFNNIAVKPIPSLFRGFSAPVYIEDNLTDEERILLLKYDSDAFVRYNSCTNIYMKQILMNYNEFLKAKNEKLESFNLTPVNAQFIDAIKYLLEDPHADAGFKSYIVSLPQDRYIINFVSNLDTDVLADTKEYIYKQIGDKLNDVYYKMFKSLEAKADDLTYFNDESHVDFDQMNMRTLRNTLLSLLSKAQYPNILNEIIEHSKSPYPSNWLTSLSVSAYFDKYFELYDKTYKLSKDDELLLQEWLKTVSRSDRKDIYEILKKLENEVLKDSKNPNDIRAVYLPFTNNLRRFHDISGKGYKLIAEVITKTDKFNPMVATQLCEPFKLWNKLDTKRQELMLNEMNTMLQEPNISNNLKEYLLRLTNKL

HEK293 = experiment: EBV LMP1 TES2 canonical NF-kB signalling blockers – cell-based, HEK293, luciferase, cherry-pick, dose response (AID 588343); type: functional; conditions: Homo sapiens
Vero [6] = experiment: mammalian cell viability reduction – secondary assay, cytotoxicity control for West Nile virus antiviral project, dose response (AID 1650); type: functional; conditions: Chlorocebus sabaeus
[7] = Trypanosoma cruzi growth suppression in host cells – NIH3T3 host cells, beta-gal luminescence, confirmation (AID 2044); type: functional, cell-based;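 also: intracellular parasites grown in NIH/3T3 mouse fibroblasts as host cells; luminescent beta-galactosidase reporter signal from transgenic T. cruzi replicating inside host cells; inhibitors lower the luminescence signal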
[8] = viability of HCT116 lacking mutant beta-catenin – cell-based, human colon tumor, dose response (AID 1045); type: functional;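 also: HCT116 colon tumor cells with beta catenin knocked out; cells exposed to compound for 60 hours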
Paired box protein Pax-8 = Paired box protein Pax-8 (Homo sapiens, UniProt Q06710); experiment: PAX8 transcriptional activity inhibition in RMG-I – RMG-I cells, luciferase, cherry-pick, dose response (AID 687027); type: functional, cell-based;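 also: luciferase reporter driven by Pax8 target thyroperoxidase promoter measured by SteadyGlo luminescence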
Paired box protein Pax-8, sequence (Q06710 whole entry): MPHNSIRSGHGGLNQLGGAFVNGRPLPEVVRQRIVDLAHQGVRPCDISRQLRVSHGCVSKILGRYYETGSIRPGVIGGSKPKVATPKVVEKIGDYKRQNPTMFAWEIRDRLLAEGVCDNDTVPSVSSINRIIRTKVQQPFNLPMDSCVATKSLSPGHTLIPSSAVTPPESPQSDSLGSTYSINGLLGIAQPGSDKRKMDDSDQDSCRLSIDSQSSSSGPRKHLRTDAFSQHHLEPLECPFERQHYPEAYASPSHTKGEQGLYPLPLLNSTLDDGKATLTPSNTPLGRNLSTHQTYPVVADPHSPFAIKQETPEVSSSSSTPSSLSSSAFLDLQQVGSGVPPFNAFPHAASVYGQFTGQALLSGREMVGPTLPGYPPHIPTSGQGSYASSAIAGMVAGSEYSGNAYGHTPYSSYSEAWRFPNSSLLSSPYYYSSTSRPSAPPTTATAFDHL

[9] = NIH3T3 cell viability loss – ATP luminescence, mouse fibroblasts, counter-screen, dose response (AID 2010); type: functional, cell-based;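 also: cells exposed to compound for about 90 hours before reading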
[10] = general cell-killing toxicity readout – plate reader, dry powder samples, cytotoxicity control for PAX8 inhibitor project, dose response (AID 743021); type: functional, cell-based
INS1 = experiment: INS-1E survival protection against cytokine death – cell-based, luminescence, retest, dose response (AID 449756); type: functional; conditions: Rattus norvegicus;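 also: cell death triggered by IL-1 beta plus TNF-alpha plus IFN-gamma mixture; protective hits raise ATP signal compared with cytokine alone wells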
[11] = viability of PTEN-deleted HCT116 cells – cell-based, HCT116 PTEN knockout, dose response (AID 1047); type: functional;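 also: HCT116 colon tumor cells with PTEN knocked out; cells exposed to compound for 60 hours before readout; potency for loss of cell viability measured by luminescence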
Hexokinase HKDC1 = target: T4, Hexokinase HKDC1 (Homo sapiens, UniProt Q2TB90); experiment: inhibition of HKDC1 glucose phosphorylation – biochemical, W721R variant, dose response (AID 504729); type: functional
T4 sequence (Q2TB90 whole entry): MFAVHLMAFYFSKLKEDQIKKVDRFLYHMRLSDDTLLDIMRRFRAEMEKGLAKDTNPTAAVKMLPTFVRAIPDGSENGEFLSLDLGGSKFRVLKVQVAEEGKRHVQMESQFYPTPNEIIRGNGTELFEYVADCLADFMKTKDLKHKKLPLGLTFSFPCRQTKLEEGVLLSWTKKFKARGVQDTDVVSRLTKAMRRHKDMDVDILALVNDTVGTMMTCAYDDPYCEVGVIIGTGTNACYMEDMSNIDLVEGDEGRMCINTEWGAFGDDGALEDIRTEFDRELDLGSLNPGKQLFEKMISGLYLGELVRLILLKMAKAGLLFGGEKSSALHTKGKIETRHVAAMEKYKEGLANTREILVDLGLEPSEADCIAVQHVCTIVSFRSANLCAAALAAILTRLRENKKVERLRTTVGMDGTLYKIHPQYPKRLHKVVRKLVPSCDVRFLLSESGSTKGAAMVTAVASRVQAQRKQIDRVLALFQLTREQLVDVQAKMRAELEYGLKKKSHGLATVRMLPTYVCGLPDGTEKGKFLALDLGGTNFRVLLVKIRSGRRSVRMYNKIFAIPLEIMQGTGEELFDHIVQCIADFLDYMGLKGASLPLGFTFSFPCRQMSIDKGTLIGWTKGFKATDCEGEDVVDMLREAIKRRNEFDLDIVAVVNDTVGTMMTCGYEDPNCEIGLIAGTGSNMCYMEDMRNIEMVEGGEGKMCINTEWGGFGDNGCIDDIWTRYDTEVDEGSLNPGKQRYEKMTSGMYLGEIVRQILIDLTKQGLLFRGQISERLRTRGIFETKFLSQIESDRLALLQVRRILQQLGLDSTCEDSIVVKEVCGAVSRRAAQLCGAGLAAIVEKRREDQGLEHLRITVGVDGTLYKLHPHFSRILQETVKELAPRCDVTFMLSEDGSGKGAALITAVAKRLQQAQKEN

BJ [12] = experiment: cells; type: functional, cell-based; conditions: Homo sapiens
cells [13] = type: functional, cell-based
BJ [14] = experiment: BJ-TERT-LT-ST fibroblast viability loss – cell-based, RAS-independent, luminescence, dose response (AID 1935); type: functional; conditions: Homo sapiens;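 also: BJ fibroblasts immortalized with TERT plus LT and ST oncogenes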
[15] = Luminescent dose response cell-based high throughput screening assay for inhibitors of the Janus kinase 2 mutant JAK2V617F. [Related pubchem assays: 1446 (Primary screen.), 1521 (Confirmation assay.), 1486 (Counter screen.)]; type: functional
[16] = DRD fibroblast viability loss – cell-based, non-viral oncogenic, luminescence, dose response (AID 1934); type: functional; conditions: Homo sapiens
cells [17] = type: functional, cell-based; remark: listed apart in the source
[18] = Fluorescence-based cell-based high throughput dose response assay for inhibitors of the interaction of nucleotide-binding oligomerization domain containing 2 (NOD2) and the receptor-interacting serine-threonine kinase 2 (RIPK2).; type: functional; conditions: Homo sapiens
BJ [19] = experiment: BJ-TERT fibroblast viability loss – cell-based, RAS-independent, luminescence, dose response (AID 1933); type: functional; conditions: Homo sapiens
[20] = target: Protein-tyrosine kinase 2-beta (Homo sapiens, UniProt Q14289);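 also: potency of inhibitors of PYK2 kinase phosphorylation of poly-GT substrate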
Protein-tyrosine kinase 2-beta, sequence (Q14289 whole entry): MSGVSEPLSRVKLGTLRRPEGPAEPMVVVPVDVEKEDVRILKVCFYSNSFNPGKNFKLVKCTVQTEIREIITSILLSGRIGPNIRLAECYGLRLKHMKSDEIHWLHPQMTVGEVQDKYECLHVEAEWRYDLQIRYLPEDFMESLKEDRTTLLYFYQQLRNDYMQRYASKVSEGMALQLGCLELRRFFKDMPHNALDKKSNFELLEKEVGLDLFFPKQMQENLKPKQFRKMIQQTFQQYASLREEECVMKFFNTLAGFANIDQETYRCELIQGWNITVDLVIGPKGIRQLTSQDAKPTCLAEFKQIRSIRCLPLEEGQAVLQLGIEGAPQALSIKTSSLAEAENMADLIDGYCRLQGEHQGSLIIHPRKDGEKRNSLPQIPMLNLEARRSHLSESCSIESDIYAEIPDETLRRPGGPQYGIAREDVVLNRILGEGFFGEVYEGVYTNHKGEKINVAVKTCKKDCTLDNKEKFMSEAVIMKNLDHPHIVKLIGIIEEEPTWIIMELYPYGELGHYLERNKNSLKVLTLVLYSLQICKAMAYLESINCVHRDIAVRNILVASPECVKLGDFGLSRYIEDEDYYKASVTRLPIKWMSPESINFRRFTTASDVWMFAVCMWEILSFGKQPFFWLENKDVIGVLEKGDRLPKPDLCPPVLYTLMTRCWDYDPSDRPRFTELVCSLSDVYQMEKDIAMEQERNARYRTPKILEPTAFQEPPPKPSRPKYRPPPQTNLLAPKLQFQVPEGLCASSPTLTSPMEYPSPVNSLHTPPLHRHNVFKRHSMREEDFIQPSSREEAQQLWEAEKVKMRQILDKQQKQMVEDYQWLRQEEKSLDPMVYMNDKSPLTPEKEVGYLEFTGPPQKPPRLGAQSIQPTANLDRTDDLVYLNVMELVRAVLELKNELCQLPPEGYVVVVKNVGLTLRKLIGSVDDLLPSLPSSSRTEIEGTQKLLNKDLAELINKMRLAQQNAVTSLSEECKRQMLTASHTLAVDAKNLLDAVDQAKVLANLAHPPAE

Mu-type opioid receptor, sequence (P35372 whole entry): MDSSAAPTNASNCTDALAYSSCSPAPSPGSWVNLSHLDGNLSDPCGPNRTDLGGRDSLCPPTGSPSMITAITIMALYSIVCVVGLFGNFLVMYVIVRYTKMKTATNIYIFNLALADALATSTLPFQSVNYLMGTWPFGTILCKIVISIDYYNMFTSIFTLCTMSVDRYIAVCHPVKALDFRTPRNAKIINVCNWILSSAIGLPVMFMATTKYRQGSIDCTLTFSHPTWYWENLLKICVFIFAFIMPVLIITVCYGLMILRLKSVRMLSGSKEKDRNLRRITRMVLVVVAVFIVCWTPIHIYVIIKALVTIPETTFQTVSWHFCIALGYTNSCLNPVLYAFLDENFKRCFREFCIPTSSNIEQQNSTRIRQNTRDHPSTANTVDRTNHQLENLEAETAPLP

COc1cc2c3cc1Oc1cc(ccc1O)C[C@@H]1c4c(cc(OC)c(O)c4Oc4ccc(cc4)C[C@H]3N(C)CC2)CCN1C
EC50 (Mu-type opioid receptor): > 92.4 µM (inactive) | AC50 [1]: 35.2 µM (active) | EC50 [2]: 1.33 µM (active) | EC50 [3]: 44.2 µM (inactive) | EC50 (Galanin receptor type 2): > 55.7 µM (not active) | EC50 [4]: 79.2 µM (inactive) | CC50 (Vero [5]): 24.6 µM (active) | IC50 (Aminopeptidase N): 15.2 µM (active)

CCN(CC)S(=O)(=O)c1cc([N+](=O)[O-])ccc1NNC(=O)Nc1ccc(Cl)c(Cl)c1
AC50 (HEK293): 22.9 µM (active) | CC50 (Vero [6]): 14.3 µM (active) | EC50 [7]: 2.03 µM (active) | EC50 [8]: 7.99 µM (active) | AC50 (Paired box protein Pax-8): 8.91 µM (active) | EC50 [9]: > 60 µM (not active) | AC50 [10]: 3.73 µM (active) | AC50 (INS1): 6.79 µM (active) | EC50 [11]: 8.3 µM (active)

Cc1nc([N+](=O)[O-])c(Br)n1Cc1ccc(Cl)c(Cl)c1
IC50 (Hexokinase HKDC1): 22.8 µM (inactive) | EC50 (BJ [12]): > 150 µM (not active) | EC50 (cells [13]): > 350 µM (not active) | EC50 (BJ [14]): > 150 µM (inconclusive) | IC50 [15]: 0.542 µM (active) | EC50 [16]: 9.66 µM (inconclusive) | EC50 (cells [17]): > 350 µM (not active) | IC50 [18]: 4.39 µM (active) | CC50 (Vero [5]): 17.5 µM (active) | EC50 (BJ [19]): 9.74 µM (inconclusive)

Cc1n[nH]c(NC=C2C(=O)CC(C)(C)CC2=O)c1-c1ccccc1
IC50 [20]: 21 µM (not active)
